{"source": "paper PMC5218480", "about": "(PLoS ONE, 2017)", "system": "MV-4-11 cells", "test": "Gene expression microarray analysis (Affymetrix PrimeView) and GSEA", "format": "cell-based, human", "parameters": "RFU PODN (11730768_x_at) / Fold change /veh PODN (11730768_x_at) / RFU LINC00158 (11744669_a_at) / Fold change /veh LINC00158 (11744669_a_at) / RFU DUSP10 (11751237_a_at) / Fold change /veh DUSP10 (11751237_a_at) / RFU ID3 (11757404_x_at) / Fold change /veh ID3 (11757404_x_at) / RFU PLEKHG5 (11737974_s_at) / Fold change /veh PLEKHG5 (11737974_s_at) / RFU LRRC4B (11730491_at) / Fold change /veh LRRC4B (11730491_at) / RFU GIMAP4 (11747438_a_at) / Fold change /veh GIMAP4 (11747438_a_at) / RFU KRT8 (11758183_x_at) / Fold change /veh KRT8 (11758183_x_at) / RFU CNN1 (11734310_a_at) / Fold change /veh CNN1 (11734310_a_at) / RFU VPS37D (11726825_at) / Fold change /veh VPS37D (11726825_at) / RFU C10orf10 (11716522_x_at) / Fold change /veh C10orf10 (11716522_x_at) / RFU KIR2DL2 /// KIR2DL4 /// KIR2DL5A /// KIR2DL5B /// KIR2DS1 /// KIR2DS2 /// KIR2DS3 /// KIR2DS4 /// KIR3DL3 /// KIR3DL3 /// KIR3DS1 (11738374_at) / Fold change /veh KIR2DL2 /// KIR2DL4 /// KIR2DL5A /// KIR2DL5B /// KIR2DS1 /// KIR2DS2 /// KIR2DS3 /// KIR2DS4 /// KIR3DL3 /// KIR3DL3 /// KIR3DS1 (11738374_at) / RFU C1QL1 (11718748_at) / Fold change /veh C1QL1 (11718748_at) / RFU TMPRSS4 (11747572_a_at) / Fold change /veh TMPRSS4 (11747572_a_at) / RFU HAMP (11756126_x_at) / Fold change /veh HAMP (11756126_x_at) / RFU RNFT2 (11725882_a_at) / Fold change /veh RNFT2 (11725882_a_at) / RFU NR4A2 (11747474_a_at) / Fold change /veh NR4A2 (11747474_a_at) / RFU ABCC12 (11746883_a_at) / Fold change /veh ABCC12 (11746883_a_at) / RFU TMEM136 (11760407_x_at) / Fold change /veh TMEM136 (11760407_x_at) / RFU CLDN22 /// WWC2 (11732394_at) / Fold change /veh CLDN22 /// WWC2 (11732394_at) / RFU HLA-DPB1 (11760878_x_at) / Fold change /veh HLA-DPB1 (11760878_x_at) / RFU SPINT1 (11716480_a_at) / Fold change /veh SPINT1 (11716480_a_at) / RFU GAP43 (11754022_s_at) / Fold change /veh GAP43 (11754022_s_at) / RFU A4GNT (11735810_at) / Fold change /veh A4GNT (11735810_at) / RFU PRB3 (11715151_x_at) / Fold change /veh PRB3 (11715151_x_at) / RFU TUBB4B (11761932_at) / Fold change /veh TUBB4B (11761932_at) / RFU CAPN14 (11732068_a_at) / Fold change /veh CAPN14 (11732068_a_at) / RFU TMCC2 (11721928_a_at) / Fold change /veh TMCC2 (11721928_a_at) / RFU IRGQ (11745062_a_at) / Fold change /veh IRGQ (11745062_a_at) / RFU FAM174B (11720279_a_at) / Fold change /veh FAM174B (11720279_a_at) / RFU TMPRSS4 (11748680_a_at) / Fold change /veh TMPRSS4 (11748680_a_at) / RFU FAM212B (11763350_a_at) / Fold change /veh FAM212B (11763350_a_at) / RFU PLEKHG5 (11743358_a_at) / Fold change /veh PLEKHG5 (11743358_a_at) / RFU ZSCAN30 (11745921_a_at) / Fold change /veh ZSCAN30 (11745921_a_at) / RFU CMKLR1 (11741424_a_at) / Fold change /veh CMKLR1 (11741424_a_at) / RFU LOC101060620 /// MAPK8IP1 (11723275_at) / Fold change /veh LOC101060620 /// MAPK8IP1 (11723275_at) / RFU SPTSSB (11747773_x_at) / Fold change /veh SPTSSB (11747773_x_at) / RFU PRSS12 (11739890_at) / Fold change /veh PRSS12 (11739890_at) / RFU BIN1 (11741810_x_at) / Fold change /veh BIN1 (11741810_x_at) / RFU WNT11 (11732464_a_at) / Fold change /veh WNT11 (11732464_a_at) / RFU C10orf10 (11716521_a_at) / Fold change /veh C10orf10 (11716521_a_at) / RFU C5orf56 (11738089_at) / Fold change /veh C5orf56 (11738089_at) / RFU CYB561 (11721691_x_at) / Fold change /veh CYB561 (11721691_x_at) / RFU ANKRD19P (11752326_a_at) / Fold change /veh ANKRD19P (11752326_a_at) / RFU OR2T12 /// OR2T33 /// OR2T8 (11738714_s_at) / Fold change /veh OR2T12 /// OR2T33 /// OR2T8 (11738714_s_at) / RFU VCAN (11748164_a_at) / Fold change /veh VCAN (11748164_a_at) / RFU JSRP1 (11732532_at) / Fold change /veh JSRP1 (11732532_at) / RFU KRTAP10-11 (11738290_x_at) / Fold change /veh KRTAP10-11 (11738290_x_at) / RFU MYO3A (11730013_a_at) / Fold change /veh MYO3A (11730013_a_at) / RFU EBF3 (11725865_a_at) / Fold change /veh EBF3 (11725865_a_at) / RFU CAMK2N1 (11719241_x_at) / Fold change /veh CAMK2N1 (11719241_x_at) / RFU C5orf56 (11738088_a_at) / Fold change /veh C5orf56 (11738088_a_at) / RFU OLFML3 (11715873_a_at) / Fold change /veh OLFML3 (11715873_a_at) / RFU LOC100653217 /// NTM (11731650_a_at) / Fold change /veh LOC100653217 /// NTM (11731650_a_at) / RFU MAPK11 (11762145_a_at) / Fold change /veh MAPK11 (11762145_a_at) / RFU FIZ1 (11724087_x_at) / Fold change /veh FIZ1 (11724087_x_at) / RFU OASL (11726364_x_at) / Fold change /veh OASL (11726364_x_at) / RFU SOX15 (11748057_x_at) / Fold change /veh SOX15 (11748057_x_at) / RFU CD79A (11719716_a_at) / Fold change /veh CD79A (11719716_a_at) / RFU HIST1H1D (11736915_at) / Fold change /veh HIST1H1D (11736915_at) / RFU CASKIN2 (11723855_a_at) / Fold change /veh CASKIN2 (11723855_a_at) / RFU LOC730098 (11760151_x_at) / Fold change /veh LOC730098 (11760151_x_at) / RFU OR4N2 (11742367_at) / Fold change /veh OR4N2 (11742367_at) / RFU PRRT2 (11749266_a_at) / Fold change /veh PRRT2 (11749266_a_at) / RFU SNX32 (11753110_a_at) / Fold change /veh SNX32 (11753110_a_at) / RFU CDHR5 (11726645_a_at) / Fold change /veh CDHR5 (11726645_a_at) / RFU RCAN1 (11760418_a_at) / Fold change /veh RCAN1 (11760418_a_at) / RFU FAM167A (11723789_a_at) / Fold change /veh FAM167A (11723789_a_at) / RFU FAM26E (11764081_at) / Fold change /veh FAM26E (11764081_at) / RFU ISYNA1 (11749810_s_at) / Fold change /veh ISYNA1 (11749810_s_at) / RFU ACY1 (11761880_at) / Fold change /veh ACY1 (11761880_at) / RFU 11764098_at / Fold change /veh 11764098_at / RFU SAMD14 (11745864_x_at) / Fold change /veh SAMD14 (11745864_x_at) / RFU NPB (11741838_a_at) / Fold change /veh NPB (11741838_a_at) / RFU TMPRSS6 (11731388_a_at) / Fold change /veh TMPRSS6 (11731388_a_at) / RFU KRTAP10-2 (11738614_at) / Fold change /veh KRTAP10-2 (11738614_at) / RFU ARHGAP8 /// PRR5-ARHGAP8 (11727945_x_at) / Fold change /veh ARHGAP8 /// PRR5-ARHGAP8 (11727945_x_at) / RFU KRTAP5-7 /// NADSYN1 (11734609_at) / Fold change /veh KRTAP5-7 /// NADSYN1 (11734609_at) / RFU RASL12 (11751679_a_at) / Fold change /veh RASL12 (11751679_a_at) / RFU CDKN2B (11736163_a_at) / Fold change /veh CDKN2B (11736163_a_at) / RFU PRF1 (11729649_at) / Fold change /veh PRF1 (11729649_at) / RFU, ZNF638 /// ZNF638-IT1 / Fold change vs veh, ZNF638 /// ZNF638-IT1 / RFU, PANK3 / Fold change vs veh, PANK3 / RFU, SH3YL1 / Fold change vs veh, SH3YL1 / RFU, ZEB2 / Fold change vs veh, ZEB2 / RFU, NRIP1 / Fold change vs veh, NRIP1 / RFU, PTTG1IP / Fold change vs veh, PTTG1IP / RFU, CAPN2 / Fold change vs veh, CAPN2 / RFU, MED14 / Fold change vs veh, MED14 / RFU, SNORA58 / Fold change vs veh, SNORA58 / RFU, C1orf63 / Fold change vs veh, C1orf63 / RFU, LRRFIP1 / Fold change vs veh, LRRFIP1 / RFU, NDUFAF7 / Fold change vs veh, NDUFAF7 / RFU, SLC12A2 / Fold change vs veh, SLC12A2 / RFU, IBTK / Fold change vs veh, IBTK / RFU, ESF1 / Fold change vs veh, ESF1 / Fold change vs veh, TMEM50B / RFU, TAOK1 / Fold change vs veh, TAOK1 / RFU, ACBD3 / Fold change vs veh, ACBD3 / RFU, TMA16 / Fold change vs veh, TMA16 / RFU, RWDD3 / Fold change vs veh, RWDD3 / RFU, BCAT1 / Fold change vs veh, BCAT1 / RFU, EDEM3 / Fold change vs veh, EDEM3 / RFU, TMEM33 / Fold change vs veh, TMEM33 / RFU, WDR75 / Fold change vs veh, WDR75 / RFU, AHCTF1 / Fold change vs veh, AHCTF1 / RFU, TFRC / Fold change vs veh, TFRC / RFU, ZDHHC17 / Fold change vs veh, ZDHHC17 / RFU, NOM1 / Fold change vs veh, NOM1 / RFU, ARL8B / Fold change vs veh, ARL8B / RFU, ZBTB11 / Fold change vs veh, ZBTB11 / RFU, TAMM41 / Fold change vs veh, TAMM41 / RFU, KIAA1704 /// LOC100996395 / Fold change vs veh, KIAA1704 /// LOC100996395 / RFU, ING1 / Fold change vs veh, ING1 / RFU, TRMT61B / Fold change vs veh, TRMT61B / RFU, FUBP3 / Fold change vs veh, FUBP3 / RFU, TP53 / Fold change vs veh, TP53 / RFU, TNKS2 / Fold change vs veh, TNKS2 / RFU, ZFP14 / Fold change vs veh, ZFP14 / RFU, ACTR2 / Fold change vs veh, ACTR2 / RFU, PPP3R1 / Fold change vs veh, PPP3R1 / RFU, PIK3R1 / Fold change vs veh, PIK3R1 / RFU, HNRNPA1 / Fold change vs veh, HNRNPA1 / RFU, RNF170 / Fold change vs veh, RNF170 / RFU, ZNF28 / Fold change vs veh, ZNF28 / RFU, RNGTT / Fold change vs veh, RNGTT / RFU, OGT / Fold change vs veh, OGT / RFU, BRD1 / Fold change vs veh, BRD1 / RFU, MARS / Fold change vs veh, MARS / RFU, ZNF655 / Fold change vs veh, ZNF655 / RFU, FAHD1 / Fold change vs veh, FAHD1 / RFU, BDP1 / Fold change vs veh, BDP1 / RFU, LRRCC1 / Fold change vs veh, LRRCC1 / RFU, ARID1A / Fold change vs veh, ARID1A / RFU, ZNF146 / Fold change vs veh, ZNF146 / RFU, ZNF330 / Fold change vs veh, ZNF330 / RFU, GPN3 / Fold change vs veh, GPN3 / RFU, C9orf123 / Fold change vs veh, C9orf123 / RFU, N4BP2L2 / Fold change vs veh, N4BP2L2 / RFU, ARFIP1 / Fold change vs veh, ARFIP1 / RFU, FAM179B / Fold change vs veh, FAM179B / RFU, BCL10 / Fold change vs veh, BCL10 / RFU, UHRF1BP1L / Fold change vs veh, UHRF1BP1L / RFU, BET1 / Fold change vs veh, BET1 / RFU, CNOT2 / Fold change vs veh, CNOT2 / RFU, ZNF268 / Fold change vs veh, ZNF268 / Fold change vs veh, ZNF507 / RFU, DGCR2 / Fold change vs veh, DGCR2 / RFU, WDSUB1 / Fold change vs veh, WDSUB1 / Fold change vs veh, HSP90B1 /// MIR3652 / RFU, ADSS / Fold change vs veh, ADSS / RFU, GK / Fold change vs veh, GK / RFU, ZNF148 / Fold change vs veh, ZNF148 / RFU, TAF9 / Fold change vs veh, TAF9 / RFU, SLC1A5 / Fold change vs veh, SLC1A5 / RFU, SLMO2 / Fold change vs veh, SLMO2 / RFU, ABCC4 / Fold change vs veh, ABCC4 / RFU, LOC101060439 /// RAP1B / Fold change vs veh, LOC101060439 /// RAP1B / RFU, RFX7 / Fold change vs veh, RFX7 / RFU, GTPBP10 / Fold change vs veh, GTPBP10 / RFU, CNEP1R1 / Fold change vs veh, CNEP1R1 / RFU, BIVM-ERCC5 /// ERCC5 / Fold change vs veh, BIVM-ERCC5 /// ERCC5 / RFU, ILF3 / Fold change vs veh, ILF3 / RFU 11762660_at / Fold change /veh 11762660_at / RFU VCAN (11757783_s_at) / Fold change /veh VCAN (11757783_s_at) / RFU DDX43 (11728927_at) / Fold change /veh DDX43 (11728927_at) / RFU KRT8 (11758188_x_at) / Fold change /veh KRT8 (11758188_x_at) / RFU NKD1 (11759106_at) / Fold change /veh NKD1 (11759106_at) / RFU SRD5A1 (11742802_a_at) / Fold change /veh SRD5A1 (11742802_a_at) / RFU TPSAB1 /// TPSB2 (11721975_s_at) / Fold change /veh TPSAB1 /// TPSB2 (11721975_s_at) / RFU GSTM3 (11746129_a_at) / Fold change /veh GSTM3 (11746129_a_at) / RFU IL23R (11737362_x_at) / Fold change /veh IL23R (11737362_x_at) / RFU TMEM51 (11727254_a_at) / Fold change /veh TMEM51 (11727254_a_at) / RFU PIWIL2 (11732686_x_at) / Fold change /veh PIWIL2 (11732686_x_at) / RFU ORM1 (11744905_x_at) / Fold change /veh ORM1 (11744905_x_at) / RFU CCDC152 (11743942_at) / Fold change /veh CCDC152 (11743942_at) / RFU ECM1 (11717891_a_at) / Fold change /veh ECM1 (11717891_a_at) / RFU IL23R (11748794_a_at) / Fold change /veh IL23R (11748794_a_at) / RFU TNFAIP8L3 (11732012_x_at) / Fold change /veh TNFAIP8L3 (11732012_x_at) / RFU MBOAT4 (11741988_at) / Fold change /veh MBOAT4 (11741988_at) / RFU 11764193_at / Fold change /veh 11764193_at / RFU TMEM53 (11763286_at) / Fold change /veh TMEM53 (11763286_at) / RFU MAGEB2 (11727129_at) / Fold change /veh MAGEB2 (11727129_at) / RFU TMEM200A (11744735_a_at) / Fold change /veh TMEM200A (11744735_a_at) / RFU CCDC152 (11751479_a_at) / Fold change /veh CCDC152 (11751479_a_at) / RFU FAM211A (11726209_a_at) / Fold change /veh FAM211A (11726209_a_at) / RFU RGS16 (11746705_a_at) / Fold change /veh RGS16 (11746705_a_at) / RFU VCAN (11755009_s_at) / Fold change /veh VCAN (11755009_s_at) / RFU RHOB (11743442_s_at) / Fold change /veh RHOB (11743442_s_at) / RFU RGS16 (11720943_a_at) / Fold change /veh RGS16 (11720943_a_at) / RFU RGS16 (11720944_at) / Fold change /veh RGS16 (11720944_at) / RFU, VPS4B / Fold change vs veh, VPS4B / RFU, CREB1 / Fold change vs veh, CREB1 / RFU, DNAJC13 / Fold change vs veh, DNAJC13 / RFU, GNAQ / Fold change vs veh, GNAQ / RFU, CDK5R1 / Fold change vs veh, CDK5R1 / RFU, ZRANB3 / Fold change vs veh, ZRANB3 / RFU, CUL4A / Fold change vs veh, CUL4A / RFU, CCNY / Fold change vs veh, CCNY / RFU, UFL1 / Fold change vs veh, UFL1 / RFU, COG3 / Fold change vs veh, COG3 / RFU, DIAPH2 / Fold change vs veh, DIAPH2 / RFU, SKA2 / Fold change vs veh, SKA2 / RFU, AFF3 / Fold change vs veh, AFF3 / RFU, LMF1 / Fold change vs veh, LMF1 / RFU, IPO11 / Fold change vs veh, IPO11 / RFU, DFFB / Fold change vs veh, DFFB / RFU, FOXP1 / Fold change vs veh, FOXP1 / RFU, CARD8 / Fold change vs veh, CARD8 / RFU, STRN3 / Fold change vs veh, STRN3 / RFU, ADK / Fold change vs veh, ADK / RFU, RASSF2 / Fold change vs veh, RASSF2 / RFU, WIPF1 / Fold change vs veh, WIPF1 / RFU, LARP1B / Fold change vs veh, LARP1B / RFU, RASA1 / Fold change vs veh, RASA1 / RFU, RB1 / Fold change vs veh, RB1 / RFU, PPFIA1 / Fold change vs veh, PPFIA1 / RFU, MAT2A / Fold change vs veh, MAT2A / RFU, CCT5 / Fold change vs veh, CCT5 / RFU, WDR92 / Fold change vs veh, WDR92 / RFU, CUX1 / Fold change vs veh, CUX1 / RFU, TTC7A / Fold change vs veh, TTC7A / RFU, TMEM135 / Fold change vs veh, TMEM135 / RFU, DEPTOR / Fold change vs veh, DEPTOR / RFU, CPM / Fold change vs veh, CPM / RFU, DNAJB6 / Fold change vs veh, DNAJB6 / RFU, CACNA2D3 / Fold change vs veh, CACNA2D3 / RFU, DTX4 / Fold change vs veh, DTX4 / RFU, TFCP2 / Fold change vs veh, TFCP2 / RFU, GMCL1 /// GMCL1P1 / Fold change vs veh, GMCL1 /// GMCL1P1 / RFU, AEBP2 / Fold change vs veh, AEBP2 / RFU, SNHG1 /// SNORD22 /// SNORD25 /// SNORD26 /// SNORD27 /// SNORD28 /// SNORD29 /// SNORD31 / Fold change vs veh, SNHG1 /// SNORD22 /// SNORD25 /// SNORD26 /// SNORD27 /// SNORD28 /// SNORD29 /// SNORD31 / Fold change (Aza/veh), C12orf56 (ProbeSet 11735607_a_at) / Fold change (ACY-1035/veh), C12orf56 (ProbeSet 11735607_a_at) / Fold change (Aza/veh), FGFR1OP (ProbeSet 11751329_s_at) / Fold change (ACY-1035/veh), FGFR1OP (ProbeSet 11751329_s_at) / Fold change (Aza/veh), VPS36 (ProbeSet 11739960_a_at) / Fold change (ACY-1035/veh), VPS36 (ProbeSet 11739960_a_at) / RFU SYPL1 (11715823_x_at) / Fold change /veh SYPL1 (11715823_x_at) / RFU IGFBP7 (11715501_s_at) / Fold change /veh IGFBP7 (11715501_s_at) / RFU REEP3 (11722064_at) / Fold change /veh REEP3 (11722064_at) / RFU IGLL1 (11728026_x_at) / Fold change /veh IGLL1 (11728026_x_at): dose or concentration left out as unconfirmed", "details": "ProbeSet 11726661_s_at; LIST B", "data": [{"smiles": "Nc1ncn([C@@H]2O[C@H](CO)[C@@H](O)[C@H]2O)c(=O)n1", "note": "[azacitidine]", "values": [{"measurement": "Fold change vs veh, GPN3", "value": 0.91}]}]}
